Values of other authors, collected in patent US20140357595A1, “METHODS OF PREVENTING AND TREATING RECURRENCE OF A HEPATITIS C VIRUS INFECTION IN A SUBJECT AFTER THE SUBJECT HAS RECEIVED A LIVER TRANSPLANT” (priority 2013, published 2014).

Key:
[1] = clinical trials
[2] = target: T1, HCV NS5B RNA dependent RNA polymerase (Hepatitis C virus genotype 1a, UniProt P27958)
T1 construct: the HCV NS5B RNA dependent RNA polymerase
T1 sequence (P27958 2421-3011): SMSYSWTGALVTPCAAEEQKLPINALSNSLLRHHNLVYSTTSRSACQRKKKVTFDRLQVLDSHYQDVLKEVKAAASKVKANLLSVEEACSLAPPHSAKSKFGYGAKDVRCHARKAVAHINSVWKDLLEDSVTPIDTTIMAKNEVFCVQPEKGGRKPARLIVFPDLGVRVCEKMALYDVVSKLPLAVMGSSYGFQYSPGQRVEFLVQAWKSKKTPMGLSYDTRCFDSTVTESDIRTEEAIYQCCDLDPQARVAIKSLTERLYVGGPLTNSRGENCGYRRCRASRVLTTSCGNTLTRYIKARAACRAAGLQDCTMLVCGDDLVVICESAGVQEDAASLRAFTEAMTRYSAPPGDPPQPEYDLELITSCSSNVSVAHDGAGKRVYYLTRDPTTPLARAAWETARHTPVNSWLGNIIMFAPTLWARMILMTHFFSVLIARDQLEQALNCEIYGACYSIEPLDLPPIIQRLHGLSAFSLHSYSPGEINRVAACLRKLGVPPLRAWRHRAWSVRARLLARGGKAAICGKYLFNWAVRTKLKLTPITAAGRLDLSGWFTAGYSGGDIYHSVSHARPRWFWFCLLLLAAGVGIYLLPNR

| SMILES | tolerability [1] | inhibition of HCV replication mediated by the HCV NS5B RNA dependent RNA polymerase [2] |
| --- | --- | --- |
| CC(C)OC(=O)[C@H](C)N[P@](=O)(OC[C@H]1O[C@@H](n2ccc(=O)[nH]c2=O)[C@](C)(F)[C@@H]1O)Oc1ccccc1 [Compound 1, (S)-isopropyl 2-(((S)-(((2R,3R,4R,5R)-5-(2,4-dioxo-3,4-dihydropyrimidin-1(2H)-yl)-4-fluoro-3-hydroxy-4-methyltetrahydrofuran-2-yl)methoxy)(phenoxy)phosphoryl)amino)propanoate] | well-tolerated |  |
| C[C@@]1(F)[C@H](O)[C@@H](COP(=O)(O)OP(=O)(O)OP(=O)(O)O)O[C@H]1n1ccc(=O)[nH]c1=O [5′-triphosphate metabolite of Compound 1] |  | potent and selective inhibitor |
